Drawing on ChEMBL document CHEMBL4680251, “Discovery of a 2-pyridinyl urea-containing compound YD57 as a potent inhibitor of apoptosis signal-regulating kinase 1 (ASK1)” (Eur J Med Chem, 2020), this text covers IC50 for 41 compounds.

By pIC50 is commonly meant the negative decadic logarithm of the IC50, by convention in mol/L.

pIC50: −log10 of the molar value.

Assay [1] addresses T1, Mitogen-activated protein kinase kinase kinase 5 (Homo sapiens, UniProt Q99683).
T1 sequence (Q99683 whole entry): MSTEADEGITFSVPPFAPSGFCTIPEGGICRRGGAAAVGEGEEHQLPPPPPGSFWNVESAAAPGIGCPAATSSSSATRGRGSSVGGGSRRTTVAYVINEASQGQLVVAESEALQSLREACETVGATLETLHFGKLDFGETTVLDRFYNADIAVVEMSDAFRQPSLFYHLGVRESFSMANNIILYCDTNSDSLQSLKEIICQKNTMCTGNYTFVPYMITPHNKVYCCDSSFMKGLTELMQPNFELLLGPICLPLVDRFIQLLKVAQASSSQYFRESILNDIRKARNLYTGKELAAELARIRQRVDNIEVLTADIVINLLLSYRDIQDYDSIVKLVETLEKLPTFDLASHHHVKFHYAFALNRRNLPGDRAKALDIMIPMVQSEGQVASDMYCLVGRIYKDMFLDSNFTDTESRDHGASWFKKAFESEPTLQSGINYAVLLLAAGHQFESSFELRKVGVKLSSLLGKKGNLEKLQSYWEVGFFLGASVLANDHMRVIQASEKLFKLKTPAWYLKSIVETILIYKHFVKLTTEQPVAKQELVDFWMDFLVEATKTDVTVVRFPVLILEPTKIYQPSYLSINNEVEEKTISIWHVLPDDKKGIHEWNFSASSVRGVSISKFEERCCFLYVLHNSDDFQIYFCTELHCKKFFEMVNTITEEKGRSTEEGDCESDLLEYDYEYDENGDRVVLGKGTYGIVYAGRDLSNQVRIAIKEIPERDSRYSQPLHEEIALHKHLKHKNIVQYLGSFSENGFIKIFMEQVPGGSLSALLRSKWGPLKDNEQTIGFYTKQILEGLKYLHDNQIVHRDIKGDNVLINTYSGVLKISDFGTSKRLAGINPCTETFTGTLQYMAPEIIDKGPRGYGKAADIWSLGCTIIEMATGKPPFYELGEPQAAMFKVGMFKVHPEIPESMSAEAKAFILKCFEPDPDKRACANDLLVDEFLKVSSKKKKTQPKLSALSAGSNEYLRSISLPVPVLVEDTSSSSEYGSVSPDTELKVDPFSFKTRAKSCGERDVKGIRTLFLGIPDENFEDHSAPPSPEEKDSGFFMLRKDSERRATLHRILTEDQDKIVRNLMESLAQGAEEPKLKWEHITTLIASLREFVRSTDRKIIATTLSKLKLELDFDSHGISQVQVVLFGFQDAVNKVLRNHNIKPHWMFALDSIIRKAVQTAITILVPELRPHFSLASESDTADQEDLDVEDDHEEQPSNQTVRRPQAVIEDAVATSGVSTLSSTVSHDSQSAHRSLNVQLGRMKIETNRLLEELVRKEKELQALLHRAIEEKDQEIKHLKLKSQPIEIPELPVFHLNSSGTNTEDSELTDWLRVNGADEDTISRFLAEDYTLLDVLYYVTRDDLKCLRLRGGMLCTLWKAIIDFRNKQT
Put plainly: Inhibition of ASK1 (unknown origin).

Assay [2] deals with T2, Mitogen-activated protein kinase kinase kinase 6 (Homo sapiens, UniProt O95382).
T2 sequence (O95382 whole entry): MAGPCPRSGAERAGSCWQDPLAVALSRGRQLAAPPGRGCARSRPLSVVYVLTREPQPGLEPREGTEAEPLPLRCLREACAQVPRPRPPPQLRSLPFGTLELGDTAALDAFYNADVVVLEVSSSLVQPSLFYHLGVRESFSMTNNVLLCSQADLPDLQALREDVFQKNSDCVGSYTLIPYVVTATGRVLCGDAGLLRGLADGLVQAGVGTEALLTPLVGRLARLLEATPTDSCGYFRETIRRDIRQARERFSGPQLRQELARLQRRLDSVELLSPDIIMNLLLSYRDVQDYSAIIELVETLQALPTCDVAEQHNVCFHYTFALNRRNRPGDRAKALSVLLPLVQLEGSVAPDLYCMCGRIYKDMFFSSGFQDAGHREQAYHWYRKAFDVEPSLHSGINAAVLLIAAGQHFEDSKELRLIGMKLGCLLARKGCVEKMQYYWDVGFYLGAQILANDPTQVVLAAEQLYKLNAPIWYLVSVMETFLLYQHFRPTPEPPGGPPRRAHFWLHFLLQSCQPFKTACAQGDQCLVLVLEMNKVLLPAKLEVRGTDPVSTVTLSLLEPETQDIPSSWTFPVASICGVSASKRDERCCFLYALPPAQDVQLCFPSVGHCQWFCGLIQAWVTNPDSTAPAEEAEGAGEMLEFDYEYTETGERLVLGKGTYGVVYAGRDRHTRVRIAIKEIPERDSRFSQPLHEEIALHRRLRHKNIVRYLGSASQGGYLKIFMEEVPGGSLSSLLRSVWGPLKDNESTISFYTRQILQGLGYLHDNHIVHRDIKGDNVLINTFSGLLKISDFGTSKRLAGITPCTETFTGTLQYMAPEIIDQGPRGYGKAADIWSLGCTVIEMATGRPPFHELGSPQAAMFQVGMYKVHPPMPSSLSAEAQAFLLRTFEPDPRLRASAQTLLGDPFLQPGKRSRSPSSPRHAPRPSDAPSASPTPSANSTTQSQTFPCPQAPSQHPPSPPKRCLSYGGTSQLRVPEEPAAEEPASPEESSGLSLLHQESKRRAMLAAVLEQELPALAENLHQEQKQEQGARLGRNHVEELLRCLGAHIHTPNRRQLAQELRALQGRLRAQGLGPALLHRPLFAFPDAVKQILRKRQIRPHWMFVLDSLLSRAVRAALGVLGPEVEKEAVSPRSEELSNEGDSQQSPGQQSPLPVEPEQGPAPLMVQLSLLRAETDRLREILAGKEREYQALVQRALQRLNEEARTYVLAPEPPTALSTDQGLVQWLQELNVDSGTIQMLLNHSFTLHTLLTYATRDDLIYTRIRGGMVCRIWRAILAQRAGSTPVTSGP
As to the kind of experiment: Inhibition of ASK2 (unknown origin).

Assay [3] deals with T3, Mitogen-activated protein kinase kinase kinase 7 (Homo sapiens, UniProt O43318).
T3 sequence (O43318 whole entry): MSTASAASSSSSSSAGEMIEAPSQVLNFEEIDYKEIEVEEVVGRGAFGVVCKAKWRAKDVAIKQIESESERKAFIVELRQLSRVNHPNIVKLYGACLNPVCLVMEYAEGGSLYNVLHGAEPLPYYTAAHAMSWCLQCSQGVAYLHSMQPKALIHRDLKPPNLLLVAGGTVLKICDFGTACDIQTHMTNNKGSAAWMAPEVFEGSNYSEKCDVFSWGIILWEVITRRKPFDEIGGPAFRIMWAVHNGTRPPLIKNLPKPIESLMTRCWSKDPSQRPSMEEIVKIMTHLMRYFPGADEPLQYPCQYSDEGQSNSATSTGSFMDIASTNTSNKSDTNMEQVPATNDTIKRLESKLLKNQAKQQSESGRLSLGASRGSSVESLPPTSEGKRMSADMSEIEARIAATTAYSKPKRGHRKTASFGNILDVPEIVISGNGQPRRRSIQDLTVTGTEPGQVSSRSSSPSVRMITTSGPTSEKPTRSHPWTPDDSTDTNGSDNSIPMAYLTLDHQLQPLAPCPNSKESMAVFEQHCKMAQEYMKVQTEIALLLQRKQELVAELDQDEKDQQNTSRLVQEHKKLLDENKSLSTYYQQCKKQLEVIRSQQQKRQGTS
As to the kind of experiment: Inhibition of TAK1 (unknown origin).

Consider `CCc1cc(NC(=O)Nc2cccc(-c3nncn3C(C)C)n2)[nH]n1`, for which, in assay [1], the negative logarithm of the IC50 (pIC50) is 6.82.
On the same count and under the same terms, the value for `CC(C)n1cnnc1-c1cccc(NC(=O)Nc2nn(C)c3ccccc23)n1` was 6.59; that for `CC(C)n1cnnc1-c1cccc(NC(=O)OCc2ccccc2)n1` was 5.82; that for `CC(C)n1cnnc1-c1cccc(NC(=O)Nc2cnn3ccccc23)n1` was 5.44.
Take `CC(C)n1cnnc1-c1cccc(NC(=O)Nc2ncc3[nH]cnc3n2)n1`: the pIC50 is 7.49 in assay [1], 6.13 in assay [2] and 5.92 in assay [3].
For `C[C@H](CO)n1cnnc1-c1cccc(NC(=O)Nc2ncc3ccccc3n2)n1`, in that order: 7.09, 5.14 and 5.24.
`CC(C)n1cnnc1-c1cccc(NC(=O)Nc2ccc(-c3cnn(C)c3)cn2)n1`: the pIC50 in assay [1] was 7.19.
Consider `C[C@H](CO)n1cnnc1-c1cccc(NC(=O)Nc2cnc3ccccc3n2)n1`, for which the negative-log IC50 (pIC50) in assay [1] was 6.94; in assay [2], below 5.00; in assay [3], below 5.00.
The compound `CC(C)n1cnnc1-c1cccc(NC(=O)Nc2nc3ccccc3[nH]2)n1` had a pIC50 in assay [1] of 6.96.
The same measure, in the same setting: as for `Cc1cc(NC(=O)Nc2cccc(-c3nncn3C(C)C)n2)n(C)n1`, the figure is 5.38.
As to `CC(C)n1cnnc1-c1cccc(NC(=O)Nc2cc3ccccn3n2)n1`, the pIC50 is 7.07 in assay [1], 5.30 in assay [2] and below 5.00 in assay [3].
The compound `CC(C)n1cnnc1-c1cccc(NC(=O)NCc2ccccc2)n1` had a pIC50 in assay [1] of 5.15.
Same read-out and setting: as for `CC(C)n1cnnc1-c1cccc(NC(=O)Nc2ccc(-c3cnn(C)c3)cc2)n1`, the figure is 6.61; as for `CC(C)c1cc(NC(=O)Nc2cccc(-c3nncn3C(C)C)n2)[nH]n1`, 6.41; as for `CC(C)n1cnnc1-c1cccc(NC(=O)Nc2cnn(C)c2)n1`, 5.73.
Regarding `CC(C)n1cnnc1-c1cccc(NC(=O)Nc2cnc3ccccc3n2)n1`, the values for the pIC50 in assay [1], in assay [2] and in assay [3] were 7.24, 5.31 and 5.17, respectively.
Consider `CC(C)n1cnnc1-c1cccc(NC(=O)Nc2cccc(-c3cnn(C)c3)c2)n1`, for which, in assay [1], the pIC50 was 5.67.
The same measure, in the same setting: as for `Cc1cc(NC(=O)Nc2cccc(-c3nncn3C(C)C)n2)nn1C`, the figure is 6.85; as for `Cc1cc(NC(=O)Nc2cccc(-c3nncn3C(C)C)n2)[nH]n1`, 6.85.
For the compound `CC(C)n1cnnc1-c1cccc(NC(=O)Nc2nccc3ccccc23)n1`, the values for the pIC50 in assay [1], in assay [2] and in assay [3] were 7.31, 6.70 and 7.07, respectively.
`CC(C)n1cnnc1-c1cccc(NC(=O)Nc2ccn[nH]2)n1`: the pIC50 in assay [1] was 7.18.
`CC(C)n1cnnc1-c1cccc(NC(=O)Nc2ccccn2)n1`: the negative logarithm of the IC50 (pIC50) in assay [1] is 7.36; in assay [2], 5.96; in assay [3], 6.13.
For the compound `CC(C)n1cnnc1-c1cccc(NC(=O)Nc2ccc3ccccc3n2)n1`, the pIC50 was 7.16 in assay [1], 5.63 in assay [2] and 5.34 in assay [3].
Taken in the same sequence, the figures for `CC(C)n1cnnc1-c1cccc(NC(=O)Nc2ncc3ccccc3n2)n1` were 7.18, 5.54 and 5.37.
Regarding `CC(C)n1cnnc1-c1cccc(NC(=O)Nc2cc(C3CC3)nn2C)n1`, the pIC50 in assay [1] is below 5.00.
For `CC(C)n1cnnc1-c1cccc(NC(=O)Nc2ccccc2)n1`, the pIC50 in assay [1] was 5.55.
In turn, `CC(C)n1cnnc1-c1cccc(NC(=O)Nc2ccnc3ccccc23)n1` showed a pIC50 in assay [1] of 5.49.
The same measure, in the same setting: as for `CC(C)n1cnnc1-c1cccc(NC(=O)Nc2cnccn2)n1`, the figure is 7.04; as for `CC(C)n1cnnc1-c1cccc(NC(=O)Oc2ccccc2)n1`, below 5.00.
Same read-out and setting: as for `CC(C)n1cnnc1-c1cccc(N(C)C(=O)N(C)c2cc3ccccn3n2)n1`, the figure is 5.18.
The same measure, in the same setting: as for `CC(C)n1cnnc1-c1cccc(NC(=O)Nc2ccncc2)n1`, the figure is 6.47.
Regarding `CC(C)n1cnnc1-c1cccc(NC(=O)Nc2cc3ccccc3cn2)n1`, the results for the pIC50 in assay [1], in assay [2] and in assay [3] were 7.30, 5.80 and 5.87, respectively.
Take `CC(C)OC(=O)Nc1cccc(-c2nncn2C(C)C)n1`: in assay [1], the pIC50 was 6.33.
With `CC(C)n1cnnc1-c1cccc(NC(=O)Nc2ncnc3ccccc23)n1`, the negative logarithm of the IC50 (pIC50) in assay [1] was 7.15; in assay [2], 5.83; in assay [3] it was 6.38.
In assay [1], `CC(C)n1cnnc1-c1cccc(NC(=O)Nc2cnc3ccccn23)n1` had a pIC50 below 5.00.
With `CC(C)n1cnnc1-c1cccc(NC(=O)N(C)c2ccc3ccccc3n2)n1`, the pIC50 in assay [1] is 6.50.
Still for that read-out and setting: as for `CC(C)n1cnnc1-c1cccc(NC(=O)Nc2cc(C3CC3)n[nH]2)n1`, the figure is 6.91.
Turning to `C[C@H](CO)n1cnnc1-c1cccc(NC(=O)Nc2ccc3ccccc3n2)n1`, the pIC50 in assay [1] is 7.32; in assay [2], 5.54; in assay [3], 5.73.
For `C[C@H](CO)n1cnnc1-c1cccc(NC(=O)Nc2nccc3ccccc23)n1`, in that order: 7.42, 6.58 and 7.20.
On to `CC(C)n1cnnc1-c1cccc(NC(=O)Nc2cccnc2)n1`, for which the pIC50 in assay [1] is 5.92.
`CC(C)n1cnnc1-c1cccc(NC(=O)Nc2cncc3ccccc23)n1`: the negative logarithm of the IC50 (pIC50) in assay [1] is below 5.00.
